Key:
GST-Bcl-2 = GST-Bcl-2 (Homo sapiens, UniProt P10415); assay: TR-FRET binding assay, GST-Bcl-2 with F-Bak peptide probe; settings: for Ki: TR-FRET Binding Affinity, GST-Bcl-2, F-Bak peptide probe
Method in brief: (§1)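 Competitive TR-FRET: GST-fusion protein, fluorescent Bak peptide probe and Tb-labelled anti-GST antibody incubated with compound dilution series (starting 50 μM as 2× stock, 10% DMSO) for 3 h at RT. Excitation 340/35 nm; Ki derived via Wang's exact competitive-binding equation.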

GST-Bcl-XL = GST-Bcl-XL (Homo sapiens, UniProt Q07817); assay: TR-FRET binding assay, GST-Bcl-XL with F-Bak peptide probe; settings: TR-FRET Binding Affinity, GST-Bcl-XL, F-Bak peptide probe
GST-Bcl-XL, sequence (Q07817 whole entry): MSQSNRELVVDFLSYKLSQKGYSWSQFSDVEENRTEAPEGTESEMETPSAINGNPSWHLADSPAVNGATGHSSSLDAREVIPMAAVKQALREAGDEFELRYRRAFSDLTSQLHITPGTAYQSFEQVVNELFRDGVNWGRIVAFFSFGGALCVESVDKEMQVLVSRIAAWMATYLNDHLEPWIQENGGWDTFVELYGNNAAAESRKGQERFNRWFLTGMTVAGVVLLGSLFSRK
Method in brief: as §1

FL5.12/Bcl-2 cells = assay: FL5.12/Bcl-2 cell viability assay under IL-3 withdrawal (CellTitre Glo); format: cell-based, murine; settings: Mus musculus, IL-3 withdrawn 48 hrs, then 24 hrs with compound
Method in brief: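 Viability measured with CellTiter-Glo after 24 h compound treatment at various concentrations, following 48 h IL-3 withdrawal (no WEHI-3B medium). Cells: prolymphocytic mouse FL5.12 line stably transfected to overexpress Bcl-2, cultured at 37 °C, 5% CO2.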

GST-Bcl-2, sequence (P10415 whole entry, the tested form may be a part): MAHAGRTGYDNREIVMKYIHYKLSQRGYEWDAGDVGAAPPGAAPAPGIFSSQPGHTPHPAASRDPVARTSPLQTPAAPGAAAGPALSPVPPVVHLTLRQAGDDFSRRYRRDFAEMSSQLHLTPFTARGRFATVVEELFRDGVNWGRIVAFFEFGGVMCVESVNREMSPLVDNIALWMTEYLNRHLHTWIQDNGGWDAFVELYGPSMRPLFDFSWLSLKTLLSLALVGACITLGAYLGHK

SMILES	Ki (GST-Bcl-2)	Ki (GST-Bcl-XL)	EC50 (FL5.12/Bcl-2 cells)	Binding selectivity ratio (Bcl-XL Ki/Bcl-2 Ki) (GST-Bcl-2; ratio of TR-FRET Ki values, Bcl-XL over Bcl-2)
CC1(C)CCC(CN2CCN(c3ccc(C(=O)NS(=O)(=O)c4cc(F)c(NCC5CCOCC5)cc4Cl)c(Oc4ccc5[nH]ccc5c4)c3)CC2)=C(c2ccc(Cl)cc2)C1 [Example 379, N-({2-chloro-5-fluoro-4-[(tetrahydro-2H-pyran-4-ylmethyl)amino]phenyl}sulfonyl)-4-(4-{[2-(4-chlorophenyl)-4,4-dimethylcyclohex-1-en-1-yl]methyl}piperazin-1-yl)-2-(1H-indol-5-yloxy)benzamide]	256 nM	> 660 nM	> 500 nM	–
C[C@H](c1ccccc1-c1ccc(Cl)cc1)N1CCN(c2ccc(C(=O)NS(=O)(=O)c3ccc(NCC4CCOCC4)c([N+](=O)[O-])c3)c(Oc3cccc4[nH]ccc34)c2)CC1 [Example 255, 4-{4-[(1R)-1-(4′-chloro-1,1′-biphenyl-2-yl)ethyl]piperazin-1-yl}-2-(1H-indol-4-yloxy)-N-({3-nitro-4-[(tetrahydro-2H-pyran-4-ylmethyl)amino]phenyl}sulfonyl)benzamide]	7.83 nM	> 660 nM	> 500 nM	–
CC1(C)CCC(CN2CCN(c3ccc(C(=O)NS(=O)(=O)c4cnc(NCC5CCOCC5)c(Br)c4)c(Oc4cccc5[nH]ccc45)c3)CC2)=C(c2ccc(Cl)cc2)C1 [Example 325, N-({5-bromo-6-[(tetrahydro-2H-pyran-4-ylmethyl)amino]pyridin-3-yl}sulfonyl)-4-(4-{[2-(4-chlorophenyl)-4,4-dimethylcyclohex-1-en-1-yl]methyl}piperazin-1-yl)-2-(1H-indol-4-yloxy)benzamide]	2.33 nM	> 660 nM	256 nM	–
CC1(C)CCC(CN2CCN(c3ccc(C(=O)NS(=O)(=O)c4ccc(NCC5(F)CCOCC5)c([N+](=O)[O-])c4)c(Oc4cccc5[nH]ncc45)c3)CC2)=C(c2ccc(Cl)cc2)C1 [Example 409, 4-(4-{[2-(4-chlorophenyl)-4,4-dimethylcyclohex-1-en-1-yl]methyl}piperazin-1-yl)-N-[(4-{[(4-fluorotetrahydro-2H-pyran-4-yl)methyl]amino}-3-nitrophenyl)sulfonyl]-2-(1H-indazol-4-yloxy)benzamide]	< 0.01 nM	17.5 nM	1.2 nM	–
CC(C)n1cc(CN2CCN(c3ccc(C(=O)NS(=O)(=O)c4ccc(NCC5CCOCC5)c([N+](=O)[O-])c4)c(Oc4ccc5[nH]ccc5c4)c3)CC2)c(-c2ccc(Cl)cc2)cc1=O [Example 307, 4-(4-{[4-(4-chlorophenyl)-1-isopropyl-6-oxo-1,6-dihydropyridin-3-yl]methyl}piperazin-1-yl)-2-(1H-indol-5-yloxy)-N-({3-nitro-4-[(tetrahydro-2H-pyran-4-ylmethyl)amino]phenyl}sulfonyl)benzamide]	3.73 nM	> 660 nM	> 500 nM	–
CC1(C)CCC(CN2CCN(c3ccc(C(=O)NS(=O)(=O)c4ccc(NC5CCN(S(C)(=O)=O)CC5)c([N+](=O)[O-])c4)c(Oc4cccc5[nH]ccc45)c3)CC2)=C(c2ccc(Cl)cc2)C1 [Example 338, 4-(4-{[2-(4-chlorophenyl)-4,4-dimethylcyclohex-1-en-1-yl]methyl}piperazin-1-yl)-2-(1H-indol-4-yloxy)-N-[(4-{[1-(methylsulfonyl)piperidin-4-yl]amino}-3-nitrophenyl)sulfonyl]benzamide]	0.403 nM	> 660 nM	71.1 nM	–
CC1(C)CCC(CN2CCN(c3ccc(C(=O)NS(=O)(=O)c4ccc(OCC5CCOCC5)c([N+](=O)[O-])c4)c(Oc4ccc5[nH]ccc5c4)c3)CC2)=C(c2ccc(Cl)cc2)C1 [Example 279, 4-(4-{[2-(4-chlorophenyl)-4,4-dimethylcyclohex-1-en-1-yl]methyl}piperazin-1-yl)-2-(1H-indol-5-yloxy)-N-{[3-nitro-4-(tetrahydro-2H-pyran-4-ylmethoxy)phenyl]sulfonyl}benzamide]	0.095 nM	> 660 nM	16.2 nM	–
CC1(C)CCC(CN2CCN(c3ccc(C(=O)NS(=O)(=O)c4ccc(NCCCS(C)(=O)=O)c([N+](=O)[O-])c4)c(Oc4cccc5[nH]ccc45)c3)CC2)=C(c2ccc(Cl)cc2)C1 [Example 294, 4-(4-{[2-(4-chlorophenyl)-4,4-dimethylcyclohex-1-en-1-yl]methyl}piperazin-1-yl)-2-(1H-indol-4-yloxy)-N-[(4-{[3-(methylsulfonyl)propyl]amino}-3-nitrophenyl)sulfonyl]benzamide]	0.258 nM	65.1 nM	59.8 nM	–
CC1(C)CCC(CN2CCN(c3ccc(C(=O)NS(=O)(=O)c4ccc(NC5CCOCC5)c([N+](=O)[O-])c4)c(Oc4ccc5[nH]ccc5c4)c3)CC2)=C(c2ccc(Cl)cc2)C1 [Example 263, 4-(4-{[2-(4-chlorophenyl)-4,4-dimethylcyclohex-1-en-1-yl]methyl}piperazin-1-yl)-2-(1H-indol-5-yloxy)-N-{[3-nitro-4-(tetrahydro-2H-pyran-4-ylamino)phenyl]sulfonyl}benzamide]	0.316 nM	> 660 nM	28.4 nM	–
CC1(C)CCC(CN2CCN(c3ccc(C(=O)NS(=O)(=O)c4ccc(N[C@@H]5CCN(CC(F)F)C5)c([N+](=O)[O-])c4)c(Oc4cccc5[nH]cnc45)c3)CC2)=C(c2ccc(Cl)cc2)C1 [Example 407, 2-(1H-benzimidazol-4-yloxy)-4-(4-{[2-(4-chlorophenyl)-4,4-dimethylcyclohex-1-en-1-yl]methyl}piperazin-1-yl)-N-[(4-{[(3R)-1-(2,2-difluoroethyl)pyrrolidin-3-yl]amino}-3-nitrophenyl)sulfonyl]benzamide]	0.015 nM	74.6 nM	8.1 nM	4930.6
CC1(C)CCC(CN2CCN(c3ccc(C(=O)NS(=O)(=O)c4ccc(NCC5(CO)CCOCC5)c([N+](=O)[O-])c4)c(Oc4ccc5[nH]ccc5c4)c3)CC2)=C(c2ccc(Cl)cc2)C1 [Example 232, 4-(4-{[2-(4-chlorophenyl)-4,4-dimethylcyclohex-1-en-1-yl]methyl}piperazin-1-yl)-N-{[4-({[4-(hydroxymethyl)tetrahydro-2H-pyran-4-yl]methyl}amino)-3-nitrophenyl]sulfonyl}-2-(1H-indol-5-yloxy)benzamide]	0.46 nM	197 nM	12.3 nM	–
CC1(C)CCC(CN2CCN(c3ccc(C(=O)NS(=O)(=O)c4ccc(NC5CCC(F)(F)CC5)c([N+](=O)[O-])c4)c(Oc4ccc5[nH]ccc5c4)c3)CC2)=C(c2ccc(Cl)cc2)C1 [Example 305, 4-(4-{[2-(4-chlorophenyl)-4,4-dimethylcyclohex-1-en-1-yl]methyl}piperazin-1-yl)-N-({4-[(4,4-difluorocyclohexyl)amino]-3-nitrophenyl}sulfonyl)-2-(1H-indol-5-yloxy)benzamide]	3.68 nM	> 660 nM	> 500 nM	–
COCCOCCSc1ccc(S(=O)(=O)NC(=O)c2ccc(N3CCN(CC4=C(c5ccc(Cl)cc5)CC(C)(C)CC4)CC3)cc2Oc2cccc3[nH]ccc23)cc1[N+](=O)[O-] [Example 381, 4-(4-{[2-(4-chlorophenyl)-4,4-dimethylcyclohex-1-en-1-yl]methyl}piperazin-1-yl)-2-(1H-indol-4-yloxy)-N-[(4-{[2-(2-methoxyethoxy)ethyl]thio}-3-nitrophenyl)sulfonyl]benzamide]	0.054 nM	24.2 nM	71.8 nM	–

— patent US9073855B2, “BCL-2 selective apoptosis-inducing agents for the treatment of cancer and immune diseases” (AbbVie Inc., priority 2008, dated 2015)
